Measurements taken from patent US6534523B1, “Hepatitis C inhibitor tri-peptides” (Boehringer Ingelheim (Canada) Ltd., priority 1998, dated 2003).
pIC50: −log10 of the molar value.

Target: HCV NS3 protease (UniProt P26663)
Type: biochemical, HCV genotype 1b
Design: rows headed: IC50 (μM); IC50 (μM)
Settings: Table 7
Description: Recombinant HCV NS3 Protease/NS4A Cofactor Peptide Radiometric Assay
The enzyme was cloned, expressed and prepared according to the protocol described in Example 36. The enzyme was stored at −80° C., thawed on ice and diluted just prior to use in the assay buffer containing the NS4A cofactor peptide.
The substrate used for the NS3 protease/NS4A cofactor peptide radiometric assay, DDIVPC-SMSYTW, is cleaved between the cysteine and the serine residues by the enzyme. The sequence DDIVPC-SMSYTW corresponds to the NS5A/NS5B natural cleavage site in which the cysteine residue in P2 has been substituted for a proline. […] (molar ratio enzyme:cofactor 1:100) in the absence or presence of inhibitors. The separation of substrate from products is performed by adding avidin-coated agarose beads to the assay mixture followed by filtration. The amount of SMS[^125I-Y]TW product found in the filtrate allows for the calculation of the percentage of substrate conversion and of the percentage of inhibition.
The enzymatic reaction was initiated by the addition of the enzyme/NS4A peptide solution and the assay mixture was incubated for 40 min at 23° C. under gentle agitation. Ten (10) μL of 0.5N NaOH were added and 10 μL 1 M MES, pH 5.8 were added to quench the enzymatic reaction.
A non-linear curve fit with the Hill model was applied to the inhibition-concentration data, and the 50% effective concentration (IC50) was calculated by the use of SAS software (Statistical Software System; SAS Institute, Inc. Cary, N.C.). […]
The NS2-NS5B-3′ non coding region was cloned by RT-PCR into the pCR®3 vector (Invitrogen) using RNA extracted from the serum of an HCV genotype 1b infected individual (provided by Dr. Bernard Willems, Hôpital St-Luc, Montréal, Québec, Canada). The NS3-NS4A DNA region was then subcloned by PCR into the pFastBac™ HTa baculovirus expression vector (Gibco/BRL). The vector sequence includes a region encoding a 28-residue N-terminal sequence which contains a hexahistidine tag. The Bac-to-Bac™ baculovirus expression system (Gibco/BRL) was used to produce the recombinant baculovirus. The full length mature NS3 and NS4A heterodimer protein (His-NS3-NS4AFL) was expressed by infecting 10^6 Sf21 cells/mL with the recombinant baculovirus at a multiplicity of infection of 0.1-0.2 at 27° C. The infected culture was harvested 48 to 64 h later by centrifugation at 4° C. The cell pellet was homogenized in 50 mM NaPO4, pH 7.5, 40% glycerol (w/v), 2 mM β-mercaptoethanol, in presence of a cocktail of protease inhibitors. His-NS3-NS4AFL was then extracted from the cell lysate with 1.5% NP-40, 0.5% Triton X-100, 0.5M NaCl, and a DNase treatment. After ultracentrifugation, the soluble extract was diluted 4-fold and bound on a Pharmacia Hi-Trap Ni-chelating column. […] The His-NS3-NS4AFL was stored at −80° C. in 50 mM sodium phosphate, pH 7.5, 10% (w/v) glycerol, 0.5 M NaCl, 0.25 M imidazole, 0.1% NP-40. It was thawed on ice and diluted just prior to use. The protease activity of His-NS3-NS4AFL was assayed in 50 mM Tris-HCl, pH 8.0, 0.25 M sodium citrate, 0.01% (w/v) n-dodecyl-β-D-maltoside, 1 mM TCEP. Five (5) μM of the internally quenched substrate anthranilyl-DDIVPAbu[C(O)—O]-AMY(3-NO2)TW-OH in presence of various concentrations of inhibitor were incubated with 1.5 nM of His-NS3-NS4AFL for 45 min at 23° C. […] The reaction was terminated with the addition of 1M MES, pH 5.8. Fluorescence of the N-terminal product was monitored on a Perkin-Elmer LS-50B fluorometer equipped with a 96-well plate reader (excitation wavelength: 325 nm; emission wavelength: 423 nm).
The following tables list compounds representative of the invention.

Sequence of HCV NS3 protease (P26663 1027-1206, other chains not shown): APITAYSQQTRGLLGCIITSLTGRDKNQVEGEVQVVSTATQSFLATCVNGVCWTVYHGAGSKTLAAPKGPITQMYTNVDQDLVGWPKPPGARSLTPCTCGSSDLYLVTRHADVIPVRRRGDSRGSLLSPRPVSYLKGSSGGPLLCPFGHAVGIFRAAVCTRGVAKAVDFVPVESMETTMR

Compound | pIC50
C=CC1CC1(NC(=O)C1CC(Oc2cc(-c3cnn(C(C)(C)C)c3)nc3cc(OC)ccc23)CN1C(=O)C(NC(=O)OC(C)(C)C)C(C)(C)C)C(=O)O (stereo not shown) [compound 720] | 7.52
C=CC1CC1(NC(=O)C1CC(Oc2cc(N3CCC(OC)CC3)nc3cc(OC)ccc23)CN1C(=O)C(NC(=O)OC(C)(C)C)C(C)(C)C)C(=O)O (stereo not shown) [compound 721] | 7.35
C=CC1CC1(NC(=O)C1CC(Oc2cc(-c3csc(NCC)n3)nc3cc(OC)ccc23)CN1C(=O)C(NC(=O)OC(C)(C)C)C(C)(C)C)C(=O)O (stereo not shown) [compound 722] | 7.32
C=CC1CC1(NC(=O)C1CC(Oc2cc(-c3csc(NC(C)C)n3)nc3cc(OC)ccc23)CN1C(=O)C(NC(=O)OC(C)(C)C)C(C)(C)C)C(=O)O (stereo not shown) [compound 723] | 7.33
C=CC1CC1(NC(=O)C1CC(Oc2cc(N3CCC(C)CC3)nc3cc(OC)ccc23)CN1C(=O)C(NC(=O)OC(C)(C)C)C(C)(C)C)C(=O)O (stereo not shown) [compound 724] | 7.12
C=CC1CC1(NC(=O)C1CC(Oc2cc(-c3ccncn3)nc3cc(OC)ccc23)CN1C(=O)C(NC(=O)OC(C)(C)C)C(C)(C)C)C(=O)O (stereo not shown) [compound 725] | 7.34
C=CC1C[C@]1(NC(=O)[C@@H]1C[C@@H](Oc2cc(C(C)C)nc3cc(OC)ccc23)CN1C(=O)[C@@H](NC(=O)OC(C)(C)C)C(C)(C)C)C(=O)O (stereo partly shown) [compound 726] | 6.60
C=CC1CC1(NC(=O)C1CC(Oc2cc(-c3cccnc3)nc3cc(OC)ccc23)CN1C(=O)C(NC(=O)OC(C)(C)C)C(C)(C)C)C(=O)O (stereo not shown) [compound 727] | 7.15
C=CC1CC1(NC(=O)C1CC(Oc2cc(-c3csc(CS(C)(=O)=O)n3)nc3cc(OC)ccc23)CN1C(=O)C(NC(=O)OC(C)(C)C)C(C)(C)C)C(=O)O (stereo not shown) [compound 728] | 7.66
C=CC1CC1(NC(=O)C1CC(Oc2cc(-c3cnccn3)nc3cc(OC)ccc23)CN1C(=O)C(NC(=O)OC(C)(C)C)C(C)(C)C)C(=O)O (stereo not shown) [compound 729] | 6.70
C=CC1CC1(NC(=O)C1CC(Oc2cc(OC(C)C)nc3cc(OC)ccc23)CN1C(=O)C(NC(=O)OC(C)(C)C)C(C)(C)C)C(=O)O (stereo not shown) [compound 730] | 7.38
C=CC1CC1(NC(=O)C1CC(Oc2cc(OCCC)nc3cc(OC)ccc23)CN1C(=O)C(NC(=O)OC(C)(C)C)C(C)(C)C)C(=O)O (stereo not shown) [compound 731] | 7.51
C=CC1CC1(NC(=O)C1CC(Oc2cc(-c3csc(-c4csc(C)n4)n3)nc3cc(OC)ccc23)CN1C(=O)C(NC(=O)OC(C)(C)C)C(C)(C)C)C(=O)O (stereo not shown) [compound 732] | 7.70
C=CC1CC1(NC(=O)C1CC(Oc2cc(-c3csc(NC(C)(C)C)n3)nc3cc(OC)ccc23)CN1C(=O)C(NC(=O)OC(C)(C)C)C(C)(C)C)C(=O)O (stereo not shown) [compound 733] | 7.55
C=CC1CC1(NC(=O)C1CC(Oc2cc(SCC)nc3cc(OC)ccc23)CN1C(=O)C(NC(=O)OC(C)(C)C)C(C)(C)C)C(=O)O (stereo not shown) [compound 734] | 7.36
C=CC1CC1(NC(=O)C1CC(Oc2cc(OCC(C)C)nc3cc(OC)ccc23)CN1C(=O)C(NC(=O)OC(C)(C)C)C(C)(C)C)C(=O)O (stereo not shown) [compound 735] | 7.24
C=CC1C[C@]1(NC(=O)[C@@H]1C[C@@H](Oc2cc(C(C)(C)C)nc3cc(OC)ccc23)CN1C(=O)[C@@H](NC(=O)OC(C)(C)C)C(C)(C)C)C(=O)O (stereo partly shown) [compound 736] | 6.60
C=CC1CC1(NC(=O)C1CC(Oc2cc(C3CCCCC3)nc3cc(OC)ccc23)CN1C(=O)C(NC(=O)OC(C)(C)C)C(C)(C)C)C(=O)O (stereo not shown) [compound 737] | 6.96

Same assay, conditions: Table 8

Compound | pIC50
C=CC1CC1(NC(=O)C1CC(Oc2cc(-c3ccccc3)nc3cc(OC)ccc23)CN1C(=O)C(NC(=O)C(O)C1CCCCC1)C(C)(C)C)C(=O)O (stereo not shown) [compound 802] | 7.62
C=CC1CC1(NC(=O)C1CC(Oc2cc(-c3ccccc3)nc3cc(OC)ccc23)CN1C(=O)C(NC(=O)CC1CCCCC1)C(C)(C)C)C(=O)O (stereo not shown) [compound 804] | 7.49
C=CC1CC1(NC(=O)C1CC(Oc2cc(-c3ccccc3)nc3cc(OC)ccc23)CN1C(=O)C(NC(C)=O)C(C)(C)C)C(=O)O (stereo not shown) [compound 805] | 7.08
C=CC1CC1(NC(=O)C1CC(Oc2cc(-c3ccccc3)nc3cc(OC)ccc23)CN1C(=O)C(NC(=O)C(C)C1CCCCC1)C(C)(C)C)C(=O)O (stereo not shown) [compound 806] | 7.44
C=CC1CC1(NC(=O)C1CC(Oc2cc(-c3ccccc3)nc3cc(OC)ccc23)CN1C(=O)C(NC(=O)NC(C)C)C(C)(C)C)C(=O)O (stereo not shown) [compound 807] | 8.00
C=CC1CC1(NC(=O)C1CC(Oc2cc(-c3ccccc3)nc3cc(OC)ccc23)CN1C(=O)C(NC(=O)NC1CCCCC1)C(C)(C)C)C(=O)O (stereo not shown) [compound 808] | 8.10
C=CC1CC1(NC(=O)C1CC(Oc2cc(-c3ccccc3)nc3cc(OC)ccc23)CN1C(=O)C(Nc1ccccc1)C(C)C)C(=O)O (stereo not shown) [compound 809] | 7.15
C=CC1CC1(NC(=O)C1CC(Oc2cc(-c3ccccc3)nc3cc(OC)ccc23)CN1C(=O)C(NC(=O)COc1c(C)cccc1C)C(C)(C)C)C(=O)O (stereo not shown) [compound 810] | 6.35
C=CC1CC1(NC(=O)C1CC(Oc2cc(-c3ccc(Cl)cc3)nc3cc(OC)ccc23)CN1C(=O)C(NC(=O)OC(C)(C)C)C(C)(C)C)C(=O)O (stereo not shown) [compound 811] | 7.40
C=CC1CC1(NC(=O)C1CC(Oc2cc(-c3ccccc3)nc3cc(OC)ccc23)CN1C(=O)C(NC(=O)Nc1ccccc1)C(C)(C)C)C(=O)O (stereo not shown) [compound 812] | 7.89
C=CC1CC1(NC(=O)C1CC(Oc2cc(-c3ccccc3)nc3cc(OC)ccc23)CN1C(=O)C(NC(=S)NC(C)(C)C)C(C)(C)C)C(=O)O (stereo not shown) [compound 813] | 7.70
C=CC1CC1(NC(=O)C1CC(Oc2cc(-c3ccccc3Cl)nc3cc(OC)ccc23)CN1C(=O)C(NC(=O)OC(C)(C)C)C(C)(C)C)C(=O)O (stereo not shown) [compound 814] | 6.89
C=CC1CC1(NC(=O)C1CC(Oc2cc(-c3cccc(Cl)c3)nc3cc(OC)ccc23)CN1C(=O)C(NC(=O)OC(C)(C)C)C(C)(C)C)C(=O)O (stereo not shown) [compound 815] | 6.80
C=CC1CC1(NC(=O)C1CC(Oc2cc(-c3ccccc3)nc3cc(OC)ccc23)CN1C(=O)C(NC(=O)NCC)C(C)(C)C)C(=O)O (stereo not shown) [compound 816] | 7.49
C=CC1CC1(NC(=O)C1CC(Oc2cc(-c3ccccc3)nc3cc(OC)ccc23)CN1C(=O)C(NC(=O)NCc1ccccc1)C(C)(C)C)C(=O)O (stereo not shown) [compound 817] | 7.77
C=CC1CC1(NC(=O)C1CC(Oc2cc(-c3ccccc3)nc3cc(OC)ccc23)CN1C(=O)C(NC(=S)NC1CCCCC1)C(C)(C)C)C(=O)O (stereo not shown) [compound 818] | 7.72
C=CC1CC1(NC(=O)C1CC(Oc2cc(-c3ccccc3)nc3cc(OC)ccc23)CN1C(=O)C(Nc1ccc([N+](=O)[O-])c(C(F)(F)F)c1)C(C)C)C(=O)O (stereo not shown) [compound 819] | 6.49
C=CC1CC1(NC(=O)C1CC(Oc2cc(-c3ccccc3)nc3cc(OC)ccc23)CN1C(=O)C(Nc1ccc(N)c(C(F)(F)F)c1)C(C)C)C(=O)O (stereo not shown) [compound 820] | 7.20
C=CC1CC1(NC(=O)C1CC(Oc2cc(-c3ccccc3)nc3cc(OC)ccc23)CN1C(=O)C(Nc1cccc(OC)c1)C(C)C)C(=O)O (stereo not shown) [compound 821] | 6.92
C=CC1CC1(NC(=O)C1CC(Oc2cc(-c3ccccc3)nc3cc(OC)ccc23)CN1C(=O)C(Nc1ccc(C)cc1)C(C)C)C(=O)O (stereo not shown) [compound 822] | 7.30
C=CC1CC1(NC(=O)C1CC(Oc2cc(-c3ccccc3OC)nc3cc(OC)ccc23)CN1C(=O)C(NC(=O)OC(C)(C)C)C(C)(C)C)C(=O)O (stereo not shown) [compound 823] | 6.97
C=CC1CC1(NC(=O)C1CC(Oc2cc(-c3ccccc3)nc3cc(OC)ccc23)CN1C(=O)C(NCc1ccccc1)C(C)C)C(=O)O (stereo not shown) [compound 826] | 6.11
